These results are taken from PMC11002876, “KcsA-Kv1.x chimeras with complete ligand-binding sites provide improved predictivity for screening selective Kv1.x blockers” (The Journal of Biological Chemistry, 2024).

Where a SMILES comes first, the peptide text is derived from it.

The target in the experiment is T1, KcsA-Kv1.1 T+F chimera (Streptomyces lividans, UniProt P0A334, R52A/G53E/A54E/P55A/G56E/A57S/Q58H/L59F/I60S/T61S/Y62I/R64D/L81M).
T1 sequence (P0A334 1-160 R52A/G53E/A54E/P55A/G56E/A57S/Q58H/L59F/I60S/T61S/Y62I/R64D/L81M): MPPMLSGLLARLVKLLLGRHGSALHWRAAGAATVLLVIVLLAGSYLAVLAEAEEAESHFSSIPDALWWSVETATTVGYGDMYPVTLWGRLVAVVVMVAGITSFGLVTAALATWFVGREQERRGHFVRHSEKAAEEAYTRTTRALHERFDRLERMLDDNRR
Kind of experiment: Phage-binding competition assay, KcsA-Kv1.1 T+F. Set-up: species or system human Kv1.1 turret and filter in Streptomyces lividans KcsA. Conditions: for competition binding to KcsA-Kv1.1 T+F, in words: ShK-phage competition, native peptide, Fig. 8F (ligand-binding pattern); for Rank, T+F chimera (Kv1.1): rank by competition IC50 among ShK, KTX1, MTX. The protocol: Phage stock solutions were diluted to working concentration with phage resuspension buffer supplemented with 2 mM DDM. For protein immobilization, the following amounts were used in a final volume of 50 μl/well: wt KcsA, 0.1 μg; KcsA-Kv1.1 T-only, 0.005 μg; KcsA-Kv1.1 T+F, 0.02 μg; KcsA-Kv1.2 T-only, 0.01 μg; KcsA-Kv1.2 T+F, 0.1 μg; KcsA-Kv1.3 T-only, 0.01 μg; and KcsA-Kv1.3 T+F, 0.1 μg. Protein samples were diluted in 50 μl of storage buffer (20 mM Tris pH8.0, 300 mM KCl, 2 mM DDM) and were added to the designated wells of a Pierce Clear, 96-Well Nickel Coated Plate (15442, Thermo Fisher Scientific), then incubated for 1 h at room temperature on a horizontal shaker at 130 rpm. The plate was blocked for 1 h at room temperature with 180 μl/well TBS-BSA supplemented with 1 mM DDM. Following blocking, the wells were washed 4× with washing buffer (300 μl TBS-Tween, 0.1% v/v) using a Wellwash Versa microplate washer (Thermo Fisher Scientific); then 50 μl phage solution (in TBS-BSA-Tween, 0.1% v/v, 2 mM DDM) at determined phage concentration was added to the wells and incubated for 1 h at room temperature on a horizontal shaker. The plate was washed 4× with washing buffer, then 50 μl anti-M13 IgG HRP (MA5-36125, Invitrogen) diluted to 1:2500 in TBS-Tween (0.1% v/v) was added to the wells and incubated for 1 h at room temperature. The plate was washed again 4× with 300 μl/well washing buffer. Finally, 50 μl/well 1-Step Ultra TMB-ELISA solution (34028, Thermo Fisher Scientific) was added to the wells, and the developing signal was stopped with 50 μl 1M HCl after 5 to 10 min. The light absorbance signal was read at 450 nm with Byonoy absorbance 96 plate reader (Byonoy GmbH).
For protein immobilization, the following amounts were used in a final volume of 50 μl/well: KcsA-Kv1.1 T-only, 0.005 μg; KcsA-Kv1.1 T+F, 0.01 μg; KcsA-Kv1.2 T-only, 0.025 μg; KcsA-Kv1.2 T+F, 0.0125 μg; KcsA-Kv1.3 T-only, 0.01 μg; and KcsA-Kv1.3 T+F, 0.1 μg. Protein samples were diluted in storage buffer. Binding of given concentrations of relevant ligand-displaying phages quantified by light absorbance ([…]) were investigated in a similar manner as in phage ELISA-binding assay, while different concentrations of competing toxin test substances were applied simultaneously. The results were converted to percent inhibitions (percent displacement) of the indicator phage binding, and relative affinities of the tested toxins were assessed by plotting percent displacements against log concentrations and determining half maximal inhibitory concentrations (IC50) by sigmoidal curve fitting using “Sigmoidal dose-response (variable slope) with least squares method” algorithm in GraphPad Prism 8 using the following equation: Y=Bottom+Top−Bottom/1+10^(LogEC50−×)⋅HillSlope

On to `CC[C@H](C)[C@H](NC(=O)[C@H](CCC(=O)O)NC(=O)[C@@H](NC(=O)CN)C(C)C)C(=O)N[C@@H](CC(N)=O)C(=O)N[C@H](C(=O)N[C@@H](CCCCN)C(=O)N[C@H]1CSSC[C@@H]2NC(=O)[C@H](CCCCN)NC(=O)CNC(=O)[C@H](Cc3ccccc3)NC(=O)[C@H](CCCNC(=N)N)NC(=O)[C@H](CCSC)NC(=O)CNC(=O)[C@H](C)NC(=O)[C@H](CC(=O)O)NC(=O)[C@H](CCCCN)NC(=O)[C@@H]3CSSC[C@@H](C(=O)N[C@H](C(=O)N4CCC[C@H]4C(=O)N[C@@H](CCCCN)C(=O)O)[C@@H](C)O)NC(=O)[C@H](Cc4c[nH]cn4)NC(=O)[C@H](CSSC[C@H](NC(=O)[C@H](CCC(N)=O)NC(=O)[C@@H]4CCCN4C(=O)[C@H](CO)NC(=O)CNC(=O)[C@H](CO)NC1=O)C(=O)N[C@@H](CC(C)C)C(=O)N[C@@H](CCCCN)C(=O)N1CCC[C@H]1C(=O)N3)NC(=O)[C@H](CCCCN)NC(=O)[C@H](CCCNC(=N)N)NC(=O)[C@H](CC(N)=O)NC(=O)[C@H](CCSC)NC2=O)C(C)C` [KTX1, Kaliotoxin-1], for which the “competition binding to KcsA-Kv1.1 T+F, in words” value (“competition binding” for short) is “ShK > KTX1 > MTX” and the “Rank, T+F chimera (Kv1.1)” value came to 2.
For the compound `CC[C@H](C)[C@@H]1NC(=O)[C@@H]2CSSC[C@H](NC(=O)[C@H](CO)NC(=O)[C@@H](N)C(C)C)C(=O)N[C@@H]([C@@H](C)O)C(=O)NCC(=O)N[C@@H](CO)C(=O)N[C@@H](CCCCN)C(=O)N[C@@H](CC(=O)O)C(=O)N[C@@H](CSSC[C@@H](C(=O)N[C@@H](CCCCN)C(=O)N[C@H]3CSSC[C@@H](C(N)=O)NC(=O)CNC(=O)[C@H](Cc4ccc(O)cc4)NC3=O)NC(=O)[C@H](CO)NC(=O)[C@H](CCCCN)NC(=O)[C@H](CC(N)=O)NC1=O)C(=O)N[C@@H](Cc1ccc(O)cc1)C(=O)N[C@@H](C)C(=O)N1CCC[C@H]1C(=O)N[C@H]1CSSC[C@H](NC(=O)CNC(=O)[C@H]([C@@H](C)O)NC(=O)[C@H](CCC(N)=O)NC(=O)[C@H](CCCCN)NC(=O)[C@H](CCCNC(=N)N)NC1=O)C(=O)N1CCC[C@H]1C(=O)N[C@@H](CC(N)=O)C(=O)N[C@@H](C)C(=O)N[C@@H](CCCCN)C(=O)N2` [MTX, Maurotoxin] (HELM PEPTIDE1{V.S.C.T.G.S.K.D.C.Y.A.P.C.R.K.Q.T.G.C.P.N.A.K.C.I.N.K.S.C.K.C.Y.G.C.[am]}$PEPTIDE1,PEPTIDE1,3:R3-24:R3|PEPTIDE1,PEPTIDE1,9:R3-29:R3|PEPTIDE1,PEPTIDE1,13:R3-19:R3|PEPTIDE1,PEPTIDE1,31:R3-34:R3$$$V2.0; N-terminus and C-terminus assumed), the “competition binding” value was “ShK > KTX1 > MTX” and the “Rank, T+F chimera (Kv1.1)” value is recorded as 3. The “competition binding” value (listed as MTX1) is reported as “negligible binding”.
For `CC[C@H](C)[C@@H]1NC(=O)[C@@H](NC(=O)[C@H](CO)NC(=O)[C@@H](N)CCCNC(=N)N)CSSC[C@@H](C(=O)O)NC(=O)[C@H]([C@@H](C)O)NC(=O)CNC(=O)[C@@H]2CSSC[C@@H]3NC(=O)[C@H](CCC(N)=O)NC(=O)[C@H](Cc4ccccc4)NC(=O)[C@H](C)NC(=O)[C@H]([C@@H](C)O)NC(=O)[C@H](CSSC[C@H](NC(=O)[C@H](Cc4ccccc4)NC(=O)[C@H](CO)NC(=O)[C@H](CC(C)C)NC(=O)[C@H](CCCNC(=N)N)NC(=O)[C@H](Cc4ccc(O)cc4)NC(=O)[C@H](CCCCN)NC(=O)[C@H](CCSC)NC(=O)[C@H](CO)NC(=O)[C@H](Cc4c[nH]cn4)NC(=O)[C@H](CCCCN)NC3=O)C(=O)N[C@@H](CCCNC(=N)N)C(=O)N[C@@H](CCCCN)C(=O)N[C@@H]([C@@H](C)O)C(=O)N2)NC(=O)[C@H](CCCNC(=N)N)NC(=O)[C@H](CO)NC(=O)[C@H](CCCCN)NC(=O)[C@@H]2CCCN2C(=O)[C@H]([C@@H](C)CC)NC(=O)[C@H]([C@@H](C)O)NC(=O)[C@H](CC(=O)O)NC1=O` [ShK, Stichodactyla toxin], the “competition binding” value is “ShK > KTX1 > MTX” and the “Rank, T+F chimera (Kv1.1)” value is given as 1.
